Test [1] relates to Aspergillus fumigatus ATCC 16424. Kind of test: Broth microdilution antifungal susceptibility (MIC/MFC). Type of test: cell-based. The note with it: Aspergillus fumigatus. The method, boiled down: (§1)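 CLSI broth microdilution: Ca/Mg-supplemented Mueller-Hinton for bacteria (~5 × 10^5 CFU/mL, 24 h), MOPS-buffered RPMI 1640 pH 7.0 for fungi (Candida ~2.5 × 10^4, Aspergillus 0.4-5 × 10^4 CFU/mL, 48 h), 35°C, 1% DMSO, 64 to 0.12 μg/mL. MIC read visually; MBC/MFC by plating clear wells.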

Test [2] has as its system Aspergillus niger ATCC 16404. The description is as above. Format: cell-based. Particulars: Aspergillus niger. The method, boiled down:
as §1

Test [3] deals with Candida albicans ATCC 90028. The test is described as above. Type of test: cell-based. Particulars: Candida albicans. The method, boiled down: as §1
Test [4] concerns Candida glabrata ATCC 90030. Described as above. The note with it: Nakaseomyces glabratus. Format: cell-based. Put shortly: as §1
Test [5] deals with L. donovani promastigotes. Kind of test: Dose-dependent anti-promastigote activity, IC50 and IC90. Type of test: cell-based, Leishmania donovani. Particulars: Leishmania donovani, 72 h, 22°C, mean from three determinations. As to the method: L. donovani parasites (MHOM/IN/83/AG83) were maintained in vivo in BALB/c mice. Promastigotes were routinely cultured at 22°C in medium M199 supplemented with 10% heat inactivated fetal bovine serum (FBS, HiMedia Laboratories, Mumbai, India), penicillin 100 (IU/ml), streptomycin (100 μg/ml). Log phase promastigotes were sub-cultured every 72–96 h, the inoculum being 2 × 10^6 cells/ml (Afrin et al., [2002]).
AmB was used as a standard antileishmanial drug control. The cell viability was evaluated by microscopically and the mean percentage viability was calculated as follows: Mean cell number of treated parasites / Mean cell number of untreated parasites × 100. The 50 and 90% inhibitory concentration (IC50 and IC90) i.e., the concentration of drugs that decreased the cell growth by 50 and 90% respectively was determined by graphical extrapolation after plotting the graph of % viability vs. concentration of drug (Islamuddin et al., [2014b]).
(§2) In vitro antileishmanial activity was expressed as IC50 by linear regression analysis. Values are mean ± SE of samples in triplicate from at least three independent experiments. Statistical analysis was performed using ANOVA followed by Dunnett's test. ^*P < 0.05, ^**P < 0.01 and ^***P < 0.001 compared with the untreated control group were considered significant.

In test [6] the test system is L. donovani promastigotes. Nature of the test: Leishmanicidal assay (growth reversion after wash-out). Format: cell-based, Leishmania donovani. Particulars: 1 μM, 72 h treatment, then 72 h in fresh media. As to the method:
To confirm the leishmanicidal effect of compounds 9, 12, 14, and 18, treated and untreated parasites (1 μM) after 72 h of incubation, were washed two times with fresh incomplete medium and finally resuspended in complete media, transferred back to 22°C and allowed to grow for 72 h. The viability of the parasites was determined microscopically (Afrin et al., [2001]).

Test [7] concerns L. donovani intracellular amastigotes. Kind of test: Anti-amastigote activity in ex vivo macrophage model. Type of test: cell-based, Leishmania donovani. The note with it: Leishmania donovani, Peritoneal macrophage, in Mus musculus; intracellular amastigotes in BALB/c peritoneal macrophages, 48 h; read-out: L. donovani amastigotes IC50 ± SEM.
Text: BALB/c mice was used for the isolation of peritoneal macrophages in the ex vivo anti-amastigote study after prior approval from the Jamia Hamdard Animal Ethics Committee (JHAEC). JHAEC is registered under the Committee for the purpose of supervision and control of experiments on animals (CPCSEA). Mice were individually housed in the Central Animal House of Jamia Hamdard as per internationally accepted norms. The mice were kept in standard size polycarbonate cages under controlled conditions of temperature (23 ± 1°C), humidity (55 ± 10%), 12:12 h of light and dark cycle and fed with standard pellet diet and filtered water (ad libitum).
Macrophages from the peritonial cavity of BALB/c mice (1 × 10^6 cellsml^−1) were allowed to adhere to round glass coverslips in a 24 well tissue culture plate and incubated for 12 h at 37°C in a CO2 incubator. After removal of the non-adherent macrophages, the cells were infected with stationary phase promastigotes using a cell to parasite ratio of 1:10 and incubated at 37°C for 24 h. The non-phagocytosed parasites were removed by washing, and the infected macrophages incubated with the test compounds 9, 12, 14, and 18 (0–25 μM) for an additional 48 h. The coverslips were fixed in methanol and giemsa-stained for microscopic evaluation (100X) of amastigote infectivity. Number of amastigotes per 100 macrophages were enumerated and the concentration that decreased amastigotes by 50% (IC50) was determined (Wong et al., [2012]; Islamuddin et al., [2014a]).
as §2

Converted amounts (≈) assume the structure as drawn.

As to `C[C@@H]1[C@H](O)[C@@H](C)/C=C/C=C/C=C/C=C/C=C/C=C/C=C/[C@H](O[C@@H]2O[C@H](C)[C@@H](O)[C@H](N)[C@@H]2O)C[C@@H]2O[C@](O)(C[C@@H](O)C[C@@H](O)[C@H](O)CC[C@@H](O)C[C@@H](O)CC(=O)O[C@H]1C)C[C@H](O)[C@H]2C(=O)O` [AmB, Amphotericin B, reference compound], the MIC came out at 0.5 µg/mL (≈ 0.541 µM) in test [1] (ATCC16424, 48 h, broth microdilution, 35°C, 48 h, read-out: MIC, Af ATCC 16424); 1 µg/mL (≈ 1.08 µM) in test [2] (ATCC16404, 48 h, broth microdilution, 35°C, 48 h, read-out: MIC, An ATCC 16404); 0.5 µg/mL (≈ 0.541 µM) in test [3] (ATCC90028, 48 h, broth microdilution, 35°C, 48 h, read-out: MIC, Ca ATCC 90028); 0.5 µg/mL (≈ 0.541 µM) in test [4] (ATCC90030, 48 h, broth microdilution, 35°C, 48 h, read-out: MIC, Cg ATCC 90030). The MFC in test [1] (ATCC16424, ≥99.9% reduction of original inoculum, read-out: MFC, Af ATCC 16424) came out at 1 µg/mL (≈ 1.08 µM); in test [2] (ATCC16404, ≥99.9% reduction of original inoculum, read-out: MFC, An ATCC 16404), 1 µg/mL (≈ 1.08 µM); in test [3] (ATCC90028, ≥99.9% reduction of original inoculum, read-out: MFC, Ca ATCC 90028) it was 0.5 µg/mL (≈ 0.541 µM); in test [4] (ATCC90030, ≥99.9% reduction of original inoculum, read-out: MFC, Cg ATCC 90030), 0.5 µg/mL (≈ 0.541 µM). Further, the figures for the IC50 in test [5] (read-out: L. donovani promastigotes IC50 ± SEM) and in test [7] were 19.6 ± 1.71 nM and 27.8 ± 3.26 nM, respectively. Also, the IC90 in test [5] (read-out: L. donovani promastigotes IC90 ± SEM) came out at 82.6 ± 1.36 nM. Also, the “Leishmanicidal effect (reversion after wash and 72 h in fresh media)” value in test [6] was “as also observed in positive drug control”.

Source of the values: article PMC5007854, “β-Nitrostyrenes as Potential Anti-leishmanial Agents” (Frontiers in Microbiology, 2016).
